From PubChem BioAssay (NCI)
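96-well plates; 48 h exposure; 5 concentrations. Endpoints by linear interpolation between flanking doses. Not reached: highest tested concentration assigned. At the GI50, growth is halved. TGI: total growth inhibition.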

What was measured:
Test in all cases: DTP human tumour cell line panel, 48 h
HL-60(TB) leukemia = test system: HL-60(TB) leukemia
NCI-H522 lung = test system: NCI-H522 lung
SNB-75 CNS = test system: SNB-75 CNS
OVCAR-3 ovarian = test system: OVCAR-3 ovarian
OVCAR-5 ovarian = test system: OVCAR-5 ovarian
BT-549 breast = test system: BT-549 breast
NCI/ADR-RES ovarian = test system: NCI/ADR-RES ovarian
CCRF-CEM leukemia = test system: CCRF-CEM leukemia
SF-268 CNS = test system: SF-268 CNS
EKVX NSCLC = test system: EKVX NSCLC
SK-MEL-2 melanoma = test system: SK-MEL-2 melanoma
A498 renal = test system: A498 renal
RPMI-8226 leukemia = test system: RPMI-8226 leukemia
UACC-257 melanoma = test system: UACC-257 melanoma
SF-539 CNS = test system: SF-539 CNS
K-562 leukemia = test system: K-562 leukemia
IGROV1 ovarian = test system: IGROV1 ovarian
786-0 renal = test system: 786-0 renal
CAKI-1 renal = test system: CAKI-1 renal
ACHN renal = test system: ACHN renal
HOP-62 NSCLC = test system: HOP-62 NSCLC
DU-145 prostate = test system: DU-145 prostate
HCT-15 colon = test system: HCT-15 colon
NCI-H460 lung = test system: NCI-H460 lung
UO-31 renal = test system: UO-31 renal
HCT-116 colon = test system: HCT-116 colon
MCF7 breast = test system: MCF7 breast
HT29 colon = test system: HT29 colon
OVCAR-8 ovarian = test system: OVCAR-8 ovarian
SW-620 colon = test system: SW-620 colon
SF-295 CNS = test system: SF-295 CNS
TK-10 renal = test system: TK-10 renal
SN12C renal = test system: SN12C renal
UACC-62 melanoma = test system: UACC-62 melanoma
M14 melanoma = test system: M14 melanoma
MDA-MB-435 = test system: MDA-MB-435
SNB-19 CNS = test system: SNB-19 CNS
SK-MEL-5 melanoma = test system: SK-MEL-5 melanoma
HOP-92 NSCLC = test system: HOP-92 NSCLC
OVCAR-4 ovarian = test system: OVCAR-4 ovarian
U251 CNS = test system: U251 CNS
COLO 205 colon = test system: COLO 205 colon
KM12 colon = test system: KM12 colon
SK-OV-3 ovarian = test system: SK-OV-3 ovarian
SK-MEL-28 melanoma = test system: SK-MEL-28 melanoma
T-47D breast = test system: T-47D breast
HCC-2998 colon = test system: HCC-2998 colon
LOX IMVI melanoma = test system: LOX IMVI melanoma
MALME-3M melanoma = test system: MALME-3M melanoma
SR leukemia = test system: SR leukemia
NCI-H23 lung = test system: NCI-H23 lung
A549 NSCLC = test system: A549 NSCLC
MOLT-4 leukemia = test system: MOLT-4 leukemia
HS 578T breast = test system: HS 578T breast
PC-3 prostate = test system: PC-3 prostate
MDA-MB-231 breast = test system: MDA-MB-231 breast
NCI-H226 lung = test system: NCI-H226 lung

For CN1CCN(c2ccc(Nc3nc(NCCCNS(=O)(=O)c4ccc(F)cc4)c4sccc4n3)cc2)CC1, which GI50 (HL-60(TB) leukemia) is on record?
Its GI50 is 19.8 µM.

And the TGI (HL-60(TB) leukemia)?
Its TGI is 45.4 µM.

What about the GI50 (NCI-H522 lung) of the same compound?
The GI50 was 13.3 µM.

And the TGI (NCI-H522 lung)?
Its TGI is 27.5 µM.

And the GI50 (SNB-75 CNS)?
Its GI50 is 0.271 µM.

What about the TGI (SNB-75 CNS) of the same compound?
The TGI was 20.3 µM.

And the GI50 (OVCAR-3 ovarian)?
Its GI50 is 17.8 µM.

What about the TGI (OVCAR-3 ovarian) of the same compound?
The TGI was 55.7 µM.

What about the GI50 (OVCAR-5 ovarian) of the same compound?
Its GI50 is 18.1 µM.

What about the TGI (OVCAR-5 ovarian) of the same compound?
Its TGI is 55.9 µM.

And the GI50 (BT-549 breast)?
The GI50 was 13.9 µM.

And the TGI (BT-549 breast)?
The TGI was 31.4 µM.

And the GI50 (NCI/ADR-RES ovarian)?
The GI50 was 18.9 µM.

And the TGI (NCI/ADR-RES ovarian)?
Its TGI is 55.2 µM.

What about the GI50 (CCRF-CEM leukemia) of the same compound?
Its GI50 is 22.2 µM.

And the TGI (CCRF-CEM leukemia)?
Its TGI is over 100 µM.

What about the GI50 (SF-268 CNS) of the same compound?
Its GI50 is 12.8 µM.

What about the TGI (SF-268 CNS) of the same compound?
Its TGI is 63.4 µM.

And the GI50 (EKVX NSCLC)?
Its GI50 is 21 µM.

And the TGI (EKVX NSCLC)?
Its TGI is 73.8 µM.

And the GI50 (SK-MEL-2 melanoma)?
Its GI50 is 15.5 µM.

And the TGI (SK-MEL-2 melanoma)?
The TGI was 29.7 µM.

And the GI50 (A498 renal)?
Its GI50 is 16.1 µM.

What about the TGI (A498 renal) of the same compound?
Its TGI is 32.4 µM.

And the GI50 (RPMI-8226 leukemia)?
Its GI50 is 5.24 µM.

And the TGI (RPMI-8226 leukemia)?
The TGI was 37.6 µM.

And the GI50 (UACC-257 melanoma)?
Its GI50 is 15.1 µM.

And the TGI (UACC-257 melanoma)?
The TGI was 30.3 µM.

And the GI50 (SF-539 CNS)?
Its GI50 is 12 µM.

What about the TGI (SF-539 CNS) of the same compound?
Its TGI is 24.4 µM.

And the GI50 (K-562 leukemia)?
Its GI50 is 2.82 µM.

What about the TGI (K-562 leukemia) of the same compound?
The TGI was over 100 µM.

What about the GI50 (IGROV1 ovarian) of the same compound?
Its GI50 is 12.9 µM.

And the TGI (IGROV1 ovarian)?
Its TGI is 28 µM.

What about the GI50 (786-0 renal) of the same compound?
Its GI50 is 15.6 µM.

What about the TGI (786-0 renal) of the same compound?
Its TGI is 34.4 µM.

What about the GI50 (CAKI-1 renal) of the same compound?
Its GI50 is 15.2 µM.

And the TGI (CAKI-1 renal)?
The TGI was 28.4 µM.

What about the GI50 (ACHN renal) of the same compound?
The GI50 was 17.1 µM.

What about the TGI (ACHN renal) of the same compound?
The TGI was 40.2 µM.

What about the GI50 (HOP-62 NSCLC) of the same compound?
The GI50 was 15.4 µM.

What about the TGI (HOP-62 NSCLC) of the same compound?
The TGI was 32.8 µM.

What about the GI50 (DU-145 prostate) of the same compound?
Its GI50 is 17.4 µM.

What about the TGI (DU-145 prostate) of the same compound?
The TGI was 43 µM.

What about the GI50 (HCT-15 colon) of the same compound?
The GI50 was 4.6 µM.

And the TGI (HCT-15 colon)?
The TGI was 20.1 µM.

What about the GI50 (NCI-H460 lung) of the same compound?
Its GI50 is 14.5 µM.

What about the TGI (NCI-H460 lung) of the same compound?
Its TGI is 29.2 µM.

And the GI50 (UO-31 renal)?
The GI50 was 10.7 µM.

And the TGI (UO-31 renal)?
Its TGI is 28.7 µM.

And the GI50 (HCT-116 colon)?
The GI50 was 5.35 µM.

And the TGI (HCT-116 colon)?
Its TGI is 28.5 µM.

What about the GI50 (MCF7 breast) of the same compound?
Its GI50 is 7.39 µM.

And the TGI (MCF7 breast)?
Its TGI is 20.2 µM.

And the GI50 (HT29 colon)?
The GI50 was 5.18 µM.

What about the TGI (HT29 colon) of the same compound?
Its TGI is 25 µM.

What about the GI50 (OVCAR-8 ovarian) of the same compound?
The GI50 was 14.9 µM.

And the TGI (OVCAR-8 ovarian)?
The TGI was 42.8 µM.

What about the GI50 (SW-620 colon) of the same compound?
The GI50 was 15.2 µM.

And the TGI (SW-620 colon)?
Its TGI is 30.1 µM.

And the GI50 (SF-295 CNS)?
The GI50 was 13.3 µM.

What about the TGI (SF-295 CNS) of the same compound?
The TGI was 26.6 µM.

What about the GI50 (TK-10 renal) of the same compound?
Its GI50 is 24.6 µM.

What about the TGI (TK-10 renal) of the same compound?
Its TGI is 61.5 µM.

And the GI50 (SN12C renal)?
The GI50 was 13.6 µM.

What about the TGI (SN12C renal) of the same compound?
The TGI was 37.2 µM.

And the GI50 (UACC-62 melanoma)?
Its GI50 is 12.5 µM.

What about the TGI (UACC-62 melanoma) of the same compound?
The TGI was 25.2 µM.

What about the GI50 (M14 melanoma) of the same compound?
Its GI50 is 2.47 µM.

What about the TGI (M14 melanoma) of the same compound?
The TGI was 7.33 µM.

And the GI50 (MDA-MB-435)?
The GI50 was 14.3 µM.

And the TGI (MDA-MB-435)?
Its TGI is 27.4 µM.

And the GI50 (SNB-19 CNS)?
Its GI50 is 23 µM.

And the TGI (SNB-19 CNS)?
Its TGI is 61.1 µM.

And the GI50 (SK-MEL-5 melanoma)?
The GI50 was 15.8 µM.

What about the TGI (SK-MEL-5 melanoma) of the same compound?
The TGI was 29.2 µM.

And the GI50 (HOP-92 NSCLC)?
Its GI50 is 4.72 µM.

And the TGI (HOP-92 NSCLC)?
Its TGI is 26.1 µM.

What about the GI50 (OVCAR-4 ovarian) of the same compound?
The GI50 was 10.2 µM.

And the TGI (OVCAR-4 ovarian)?
Its TGI is 38.8 µM.

And the GI50 (U251 CNS)?
The GI50 was 5.65 µM.

And the TGI (U251 CNS)?
The TGI was 28.6 µM.

What about the GI50 (COLO 205 colon) of the same compound?
The GI50 was 14.2 µM.

What about the TGI (COLO 205 colon) of the same compound?
Its TGI is 32.2 µM.

And the GI50 (KM12 colon)?
Its GI50 is 16.9 µM.

And the TGI (KM12 colon)?
The TGI was 56.4 µM.

And the GI50 (SK-OV-3 ovarian)?
The GI50 was 27 µM.

What about the TGI (SK-OV-3 ovarian) of the same compound?
Its TGI is 78.4 µM.

What about the GI50 (SK-MEL-28 melanoma) of the same compound?
Its GI50 is 13.1 µM.

And the TGI (SK-MEL-28 melanoma)?
The TGI was 25.8 µM.

What about the GI50 (T-47D breast) of the same compound?
The GI50 was 15 µM.

And the TGI (T-47D breast)?
The TGI was 40.4 µM.

What about the GI50 (HCC-2998 colon) of the same compound?
The GI50 was 14.9 µM.

And the TGI (HCC-2998 colon)?
Its TGI is 30.8 µM.

And the GI50 (LOX IMVI melanoma)?
The GI50 was 12 µM.

What about the TGI (LOX IMVI melanoma) of the same compound?
Its TGI is 25.6 µM.

What about the GI50 (MALME-3M melanoma) of the same compound?
The GI50 was 12.1 µM.

And the TGI (MALME-3M melanoma)?
The TGI was 24.4 µM.

And the GI50 (SR leukemia)?
Its GI50 is 2.83 µM.

And the TGI (SR leukemia)?
The TGI was over 100 µM.

And the GI50 (NCI-H23 lung)?
The GI50 was 14.8 µM.

And the TGI (NCI-H23 lung)?
The TGI was 30.3 µM.

What about the GI50 (A549 NSCLC) of the same compound?
The GI50 was 21.2 µM.

And the TGI (A549 NSCLC)?
Its TGI is 97.9 µM.

And the GI50 (MOLT-4 leukemia)?
Its GI50 is 6.02 µM.

What about the TGI (MOLT-4 leukemia) of the same compound?
Its TGI is 43.1 µM.

What about the GI50 (HS 578T breast) of the same compound?
The GI50 was 4.92 µM.

And the TGI (HS 578T breast)?
Its TGI is 25.4 µM.

What about the GI50 (PC-3 prostate) of the same compound?
Its GI50 is 13.4 µM.

What about the TGI (PC-3 prostate) of the same compound?
The TGI was 46.1 µM.

And the GI50 (MDA-MB-231 breast)?
Its GI50 is 11 µM.

What about the TGI (MDA-MB-231 breast) of the same compound?
Its TGI is 27.3 µM.

And the GI50 (NCI-H226 lung)?
The GI50 was 10.8 µM.

And the TGI (NCI-H226 lung)?
Its TGI is 23.1 µM.
